In the NIST ThermoML archive (doi:10.1021/je100022w):
± gives the expanded uncertainty stated by the source.

Conditions: Crystal 2; DSC

Triple point temperature: 449.15 ± 1 K
Structure (SMILES): COC(=O)[C@H](c1ccccc1Cl)N1CCc2sccc2C1.O=S(=O)(O)O [(S)-(+)-Clopidogrel hydrogen sulfate]
